According to US20040156851A1, “HMGB1 combination therapies” (Critical Therapeutics, Inc., priority 2002, published 2004):

Legend:
[1] = system: RAW 264.7 cells; test: TNF release from RAW 264.7 cells stimulated with HMGB1, mutants or B box peptides (L929 cytotoxicity bioassay); type: cell-based, murine; details: for TNF release by synthetic B box peptide fragments: synthetic peptide 10 μg/ml, 10 hours (FIG. 3)
Method: Murine macrophage-like RAW 264.7 cells (American Type Culture Collection, Rockville, Md.) were cultured in RPMI 1640 medium (Life Technologies, Grand Island, N.Y.) supplemented with 10% fetal bovine serum (Gemini, Catabasas, Calif.), penicillin and streptomycin (Life Technologies) and were used at 90% confluence in serum-free Opti-MEM I medium (Life Technologies, Grand Island, N.Y.). […] Polymyxin B was not used in experiments of synthetic peptide studies.
TNF release was measured by a standard murine fibroblast L929 (ATCC, American Type Culture Collection, Rockville, Md.) cytotoxicity bioassay (Bianchi et al., Journal of Experimental Medicine 183:927-936, 1996) with the minimum detectable concentration of 30 pg/ml. Recombinant mouse TNF was obtained from R&D system Inc., (Minneapolis, Minn.). Murine fibroblast L929 cells (ATCC) were cultured in DMEM (Life Technologies, Grand Island, N.Y.) supplemented with 10% fetal bovine serum (Gemini, Catabasas, Calif.), penicillin (50 units/ml) and streptomycin (50 μg/ml) (Life Technologies) in a humidified incubator with 5% CO2.
The effect of the mutants on TNF release from Murine macrophage-like RAW 264.7 cells (ATCC) was carried out as follows. RAW 264.7 cells were cultured in RPMI 1640 medium (Life Technologies, Grand Island, N.Y.) supplemented with 10% fetal bovine serum (Gemini, Catabasas, Calif.), penicillin and streptomycin (Life Technologies). Polymyxin (Sigma, St. Louis, Mo.) was added at 100 units/ml to suppress the activity of any contaminating LPS. Cells were incubated with 1 μg/ml of full length (wild-type) HMGB1 and each HMGB1 mutant protein in Opti-MEM I medium for 8 hours. Conditioned supernatants (containing TNF which had been released from the cells) were collected and TNF released from the cells was measured by a standard murine fibroblast L929 (ATCC) cytotoxicity bioassay (Bianchi et al., supra) with the minimum detectable concentration of 30 pg/ml. Recombinant mouse TNF was obtained from R & D Systems Inc., (Minneapolis, Minn.) and used as control in these experiments. Data in FIG. 1 are all presented as mean±SEM unless otherwise indicated. (N=6−10).
To further examine the effect of HMGB1 B box on cytokine production, varying amounts of HMGB1 B box were evaluated for the effects on TNF, IL-1B, and IL-6 production in murine macrophage-like RAW 264.7 cells. Conditioned media were harvested and measured for TNF, IL-1β and IL-6 levels. TNF levels were measured as described herein, and IL-1β and IL-6 levels were measured using the mouse IL-1β and IL-6 enzyme-linked immunosorbent assay (ELISA) kits (R&D System Inc., Minneapolis, Minn.) and N>5 for all experiments.
The kinetics of B box-induced TNF release were also examined. TNF release and TNF mRNA expression were measured in RAW 264.7 cells induced by B box polypeptide or GST tag polypeptide only (used as a control (vector)) (10 μg/ml) for 0 to 48 hours. Supernatants were analyzed for TNF protein levels by an L929 cytotoxicity assay (N=3-5) as described herein. For mRNA measurement, cells were plated in 100 mm plates and treated in Opti-MEM I medium containing B box polypeptide or the vector alone for 0, 4, 8, or 24 hours, as indicated in FIG. 2D. The vector only sample was assayed at the 4 hour time point. Cells were scraped off the plate and total RNA was isolated using the RNAzol B method in accordance with the manufacturer's instructions (Tel-Test “B”, Inc., Friendswood, Tex.). TNF (287 bp) was measured by RNase protection assay (Ambion, Austin, Tex.). Equal loading and the integrity of RNA was verified by ethidium bromide staining of the RNA sample on an agarose-formaldehyde gel. […] TNF mRNA expression was maximal at 4 hours and decreased at 8 and 24 hours. […] A similar study was carried out measuring TNF protein released from RAW 264.7 cells 0, 4, 8, 24, 32 or 48 hours after administration of B box or vector only (GST tag), using the L929 cytotoxicity assay described herein. […]

[2] = target: Recombinant full length human HMGB1 (wild type HMGB1) (human); test: cell-based or functional assay
[3] = target: RAGE on RAW 264.7 cells (mouse (murine RAW 264.7 cells)) (UniProt Q62151); test: cell-based or functional assay
Sequence of RAGE on RAW 264.7 cells (mouse (murine RAW 264.7 cells)) (Q62151 23-402): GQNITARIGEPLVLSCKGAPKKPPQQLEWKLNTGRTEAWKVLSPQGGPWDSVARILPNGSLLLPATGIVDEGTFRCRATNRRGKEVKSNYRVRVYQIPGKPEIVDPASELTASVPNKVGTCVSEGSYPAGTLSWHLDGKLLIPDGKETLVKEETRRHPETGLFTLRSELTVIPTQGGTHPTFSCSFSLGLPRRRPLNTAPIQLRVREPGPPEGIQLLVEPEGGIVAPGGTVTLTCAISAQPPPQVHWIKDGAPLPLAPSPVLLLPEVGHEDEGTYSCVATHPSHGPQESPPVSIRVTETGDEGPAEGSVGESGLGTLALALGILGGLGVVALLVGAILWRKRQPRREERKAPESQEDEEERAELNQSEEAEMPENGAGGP

[4] = system: HMGB1 induced TNF release; test: A box inhibition of HMGB1 induced TNF release from RAW 264.7 cells; type: cell-based, murine; details: co-addition with HMGB1, 16 hours, TNF ELISA (FIG. 4B)
Method: Weak agonists are by definition antagonists. […] This study was carried out as follows. Sub-confluent RAW 264.7 cells in 24-well dishes were treated with HMGB1 (1 μg/ml) and 0, 5, 10, or 25 μg/ml of A box for 16 hours in Opti-MEM I medium in the presence of polymyxin B (100 units/ml). The TNF-stimulating activity (assayed using the L929 cytotoxicity assay described herein) in the sample receiving no A box was expressed as 100%, and the inhibition by A box was expressed as percent of HMGB1 alone. […] Data in FIG. 4A are presented as mean±SD (n=2-3 independent experiments).
Antagonism of full length HMGB1 activity by HMGB1 A box or GST tag (vector control) was also determined by measuring TNF release from RAW 264.7 macrophage cultures stimulated by co-addition of A box with full length HMGB1. RAW 264.7 macrophage cells (ATCC) were seeded into 24-well tissue culture plates and used at 90% confluence. The cells were treated with HMGB1, and/or A boxes as indicated for 16 hours in Optimum I medium (Life Technologies, Grand Island, N.Y.) in the presence of polymyxin B (100 units/ml, Sigma, St. Louis, Mo.) and supernatants were collected for TNF measurement (mouse ELISA kit from R&D System Inc, Minneapolis, Minn.). TNF-inducing activity was expressed as a percentage of the activity achieved with HMGB1 alone. […]

[5] = system: Balb/c mice subjected to CLP; test: Cecal ligation and puncture (CLP) sepsis, survival of Balb/c mice; type: in vivo
Method: Cecal ligation and puncture (CLP) was performed as described previously (Fink and Heard, J. Surg. Res. 49:186-196, 1990; Wichmann et al., Crit. Care Med. 26:2078-2086, 1998; and Remick et al., Shock 4:89-95, 1995). Briefly, Balb/c mice were anesthetized with 75 mg/kg ketamine (Fort Dodge, Fort Dodge, Iowa) and 20 mg/kg of xylazine (Bohringer Ingelheim, St. Joseph, Mo.) intramuscularly. A midline incision was performed, and the cecum was isolated. A 6-0 prolene suture ligature was placed at a level 5.0 mm from the cecal tip away from the ileocecal valve.
The ligated cecal stump was then punctured once with a 22-gauge needle, without direct extrusion of stool. The cecum was then placed back into its normal intra-abdominal position. […] Mortality was recorded for up to 1 week after the procedure; survivors were followed for 2 weeks to ensure no late mortalities had occurred.
To determine whether the HMGB1 A box can inhibit the lethality of HMGB1 during sepsis, mice were subjected to cecal perforation and treated by administration of A box beginning 24 hours after the onset of sepsis. […] Survival was monitored twice daily for up to 2 weeks to ensure no late death occurred. […]
Passive immunization of critically ill septic mice with anti-HMGB1 antibodies was also assessed. […] Survival was monitored for 2 weeks. […]

## 16-25: Synthetic peptide fragment containing amino acids 16-25 of the HMGB1 B box (SEQ ID NO:20) (LFCSEYRPKI; listed as Homo sapiens)
[1]
  TNF release by synthetic B box peptide fragments: did not induce TNF release

## 30-49: Synthetic peptide fragment containing amino acids 30-49 of the HMGB1 B box (SEQ ID NO:20) (PGLSIGDVAKKLGEMWNNTA; listed as Homo sapiens)
[1]
  TNF release by synthetic B box peptide fragments: did not induce TNF release

## 45-64: Synthetic peptide fragment containing amino acids 45-64 of the HMGB1 B box (SEQ ID NO:20) (WNNTAADDKQPYEKKAAKLK; listed as Homo sapiens)
[1]
  TNF release by synthetic B box peptide fragments: did not induce TNF release

## 60-74: Synthetic peptide fragment containing amino acids 60-74 of the HMGB1 B box (SEQ ID NO:20) (AAKLKEKYEKDIAAY; listed as Homo sapiens)
[1]
  TNF release by synthetic B box peptide fragments: did not induce TNF release

## HMGB1 Amino terminus+A box mutant (human HMGB1 A box polypeptide) (from UniProt A9RA84 1-85)
[2]
  inhibition of HMGB1 (1 µg/ml) induced TNF release from RAW 264.7 cells, L929 cytotoxicity assay: 7.5 µg/mL

## Recombinant full length human HMGB1 (wild type HMGB1) (from UniProt A9RA84 1-215) (ligand)
[3]
  decrease of HMGB1 (1 µg/ml) induced TNF release from RAW 264.7 cells by anti-RAGE antibody (25 µg/ml): 40%

## fkdpnapkrlpsafflfcse (FKDPNAPKRLPSAFFLFCSE; listed as Homo sapiens) [1-20-mer]
[1]; peptide 10 μg/ml vs B box 1 μg/ml, 10 hours
  TNF stimulating potency compared with full length B box and HMGB1: less potent than either the full length synthetic B box (1-74-mer), or full length HMGB1
[1]
  TNF release by synthetic B box peptide fragments: TNF-stimulating activity was retained

B1: A box: Human HMGB1 mutant containing only the A box, SEQ ID NO:21 (A box SEQ ID NO:22) (protein, listed as Homo sapiens)
chain: MGKGDPKKPTGKMSSYAFFVQTCREEHKKKHPDASVNFSEFSKKCSERWKTMSAKEKGKFEDMAKADKARYEREMKTYIPPKGET
[4]
  effect on TNF stimulating activity of full length HMGB1: significantly attenuated the TNF stimulating activity of full length HMGB1
[5]; 60 μg/mouse
  outcome of animals: most died
[5]; 600 μg/mouse, vs vector controls or 60 μg
  clinical behaviour of animals: significantly more alert, active, and to resume feeding behavior
